# Source: patent US20130115256A1, “METHODS FOR TREATING OR PREVENTING VASCULAR GRAFT FAILURE” (priority 2010, published 2013)
# Columns and labels:
# [1] = test system: human endothelial cell (EC; HAEC); assay: MTS cell proliferation assay, human endothelial cells; assay type: cell-based
# Protocol: The CellTiter 96® AQueous Non-Radioactive Cell Proliferation Assay (Promega) was used to assess drug effects on cell proliferation according to the manufacturer's instructions. Briefly, HAECs and HASMCs from early passages were grown to 80-90% confluence in 25 cm^2 tissue culture flasks in a 37° C./5% CO2 incubator prior to harvest. 200 μl of each type of cell suspension (at 20,000 cells/cm^2) was seeded onto separate 96-well plates to yield an approximate 60% confluence per well. Cells were allowed to adhere to the plate surface overnight, followed by addition of 20 ng/ml of TNF-α to stimulate production of inflammatory agents. After a 4-6 hour incubation period, MMI-0100 peptide drug ([…]; SEQ ID NO: 1) was added and cells incubated for another 20-24 hours. Each well was then supplemented with 100 μl of fresh medium and 200 μl of CellTiter 96® AQueous One Solution Reagent and incubated for an additional 1.5-2 hours prior to measuring absorbance of each well at 490 nm with a SoftMax®-equipped plate reader.
# In order to determine the effect of pharmacological doses of MMI-0100 ([…]; SEQ ID NO: 1) on human endothelial cell (EC) and smooth muscle cell (SMC) proliferation, human EC and SMC cultures were treated with three concentrations (0.25 mM, 0.5 mM, and 1 mM) of MMI-0100 ([…] (SEQ ID NO: 1)) following pre-treatment with TNF-α.
# [2] = test system: human coronary artery endothelial cells (HCAEC); assay: TNF-α-induced IL-6 and IL-8 expression in HCAEC (ELISA); assay type: cell-based; details: 0.5 mM MMI-0100, 24 hours after 6 hour TNF-α
# Protocol: Primary human coronary artery endothelial cells (HCAEC) were cultured and seeded onto a 96-well plate, using methods described in the MTS proliferation assay above. Cells were again stimulated with 20 ng/ml of TNF-α for 6 hours and then treated with MMI-0100 (SEQ ID NO: 1) for approximately 24 hours. Supernatants were then collected and analyzed for drug effect on inflammatory cytokines.
# IL-6 (Cat #: 900-K16; Lot #: 0909016) and IL-8 (Cat #: 900-K18; Lot #: 0209018) ELISA kits (Peprotech; Rocky Hill, N.J.) were used to measure levels of these cytokines from HCAEC supernatants following treatment with MMI-0100 ([…]; SEQ ID NO: 1). The Human IL-6 ELISA development kit contains the key components required for the quantitative measurement of natural and/or recombinant hIL-6 in a sandwich ELISA format within the range of 32-2000 pg/ml. Human IL-8 ELISA development kit contains the key components required for the quantitative measurement of natural and/or recombinant hIL-8 in a sandwich ELISA format within the range of 16-1000 pg/ml.
# Briefly, 10 μl of supernatant was diluted with 90 μl of diluents; 3 replicates of each sample were used. Data were collected at 405 nm with correction at 650 nm on a plate reader. Each plate was monitored for 1 hour with readings taken every 5 minutes. Concentrations of IL-6 and IL-8 in test samples were determined by extrapolating from a standard curve. […]
# [3] = test system: mouse lung endothelial cells (MLEC); assay: Cell apoptosis analysis (annexin V flow cytometry); assay type: cell-based; details: any dose; 24 hours
# Protocol: The apoptotic effect of MMI-0100 ([…]; SEQ ID NO: 1) on mouse lung endothelial cells (MLEC) was measured at 24 hours after MMI-0100 ([…]; SEQ ID NO: 1) treatment. MLEC were removed from the tissue culture plate by trypsin, and re-suspended at a concentration of 1.0×10^6 cells/ml. Apoptotic cells were detected by AlexaFluor® 488 annexin V/Dead Cell Apoptosis Kit (Invitrogen) using flow cytometry sorting analysis.
# [4] = Toxicity observation (test not specified)
sequence,measurement,setting,value
YARAAARQARAKALARQLGVAA [MMI-0100],EC proliferation compared to control (20 ng/ml TNF-α alone),[1]; 0.25 mM MMI-0100,slightly increased
same,increase in EC proliferation compared to control (20 ng/ml TNF-α alone),[1]; 0.5 mM MMI-0100,30%
same,increase in EC proliferation compared to control (20 ng/ml TNF-α alone),[1]; 1 mM MMI-0100,11%
same,"EC morphology, phase contrast images",[1]; 24 hours treatment,no obvious morphological changes
same,TNF-α-induced IL-6 expression,[2],reduced the level of TNF-α-induced IL-6 expression to that of the untreated control
same,TNF-α-induced IL-8 expression,[2],no effect
same,EC apoptosis,[3],did not induce EC apoptosis
same,"evidence of toxicity, tissue erosion, or necrosis",[4],did not show any evidence
